Assay results as given in US8263595B2, “Triazolopyridine compounds and their use as ask inhibitors” (Merck Serono SA, priority 2007, dated 2012).

Key:
human recombinant ASK1 = biological target: T1, human recombinant ASK1 (Homo sapiens, UniProt Q99683); test: Enzyme inhibition assay (in vitro ASK1 assay), luciferase-based measurement of remaining ATP; assay type: biochemical; conditions: human recombinant ASK1, MBP and ATP as substrates, 180 minutes at 30° C.; triplicates on at least 2 separate occasions
T1 sequence (Q99683 1-1374): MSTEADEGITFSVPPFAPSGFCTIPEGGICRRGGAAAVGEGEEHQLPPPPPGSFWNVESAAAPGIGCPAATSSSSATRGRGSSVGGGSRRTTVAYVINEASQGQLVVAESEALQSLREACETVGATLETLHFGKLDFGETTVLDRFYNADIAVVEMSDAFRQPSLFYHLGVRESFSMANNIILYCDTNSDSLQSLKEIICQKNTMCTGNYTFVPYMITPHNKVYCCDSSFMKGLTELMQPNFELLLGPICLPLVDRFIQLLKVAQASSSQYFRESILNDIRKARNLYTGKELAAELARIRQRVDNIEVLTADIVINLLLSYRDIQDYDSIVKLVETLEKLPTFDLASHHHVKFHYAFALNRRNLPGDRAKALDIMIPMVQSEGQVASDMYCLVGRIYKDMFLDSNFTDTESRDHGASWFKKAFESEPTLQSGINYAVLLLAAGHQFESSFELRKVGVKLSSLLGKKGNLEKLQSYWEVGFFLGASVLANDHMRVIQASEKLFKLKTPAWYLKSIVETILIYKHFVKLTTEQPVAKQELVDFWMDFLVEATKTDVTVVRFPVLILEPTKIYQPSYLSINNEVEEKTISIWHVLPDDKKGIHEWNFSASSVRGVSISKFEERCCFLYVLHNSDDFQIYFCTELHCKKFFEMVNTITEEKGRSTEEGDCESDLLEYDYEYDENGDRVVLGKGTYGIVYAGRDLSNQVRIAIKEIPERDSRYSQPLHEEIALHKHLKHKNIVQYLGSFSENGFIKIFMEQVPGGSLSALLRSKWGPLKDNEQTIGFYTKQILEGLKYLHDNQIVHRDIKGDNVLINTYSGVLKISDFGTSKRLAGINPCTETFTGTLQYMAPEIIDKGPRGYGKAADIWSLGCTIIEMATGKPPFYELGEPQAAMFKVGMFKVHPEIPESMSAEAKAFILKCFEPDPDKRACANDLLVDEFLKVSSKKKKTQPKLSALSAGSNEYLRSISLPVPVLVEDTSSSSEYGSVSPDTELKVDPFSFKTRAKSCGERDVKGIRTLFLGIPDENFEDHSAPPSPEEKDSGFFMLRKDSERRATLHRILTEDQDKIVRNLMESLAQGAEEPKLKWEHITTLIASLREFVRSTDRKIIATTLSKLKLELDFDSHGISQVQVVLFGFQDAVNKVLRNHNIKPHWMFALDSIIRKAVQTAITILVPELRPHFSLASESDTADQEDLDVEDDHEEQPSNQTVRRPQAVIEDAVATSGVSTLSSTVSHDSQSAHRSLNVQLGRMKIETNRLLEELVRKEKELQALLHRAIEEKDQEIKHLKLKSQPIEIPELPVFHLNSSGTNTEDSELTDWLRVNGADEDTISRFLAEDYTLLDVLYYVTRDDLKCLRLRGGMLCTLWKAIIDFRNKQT
Procedure: Assays were performed in a 384 well plate (Corning, #3654) format, using the human recombinant ASK1 as an enzyme and MBP (myelin basic protein, Upstate/Millipore, #13-104) with ATP as substrates. Assay read out was the measurement of the amount of ATP remaining after stopping the reaction, using a luciferase-based kit from Cambrex.
Compounds to be tested were dissolved in 100% DMSO at a concentration of 10 mM. Subsequent dilutions were performed in 100% DMSO using a Biomek FX Workstation. 5 μL of diluted compound or vehicle (6% DMSO) was distributed to a 384 well plate. 5 μL of substrates (ATP 7.5 μM, MBP 450 ng/μL) diluted in ASK1 buffer (20 mM Tris HCl pH 7.4, 0.001% Brij35, 0.01% BSA, 5 mM MgCl2, 1 mM DL-Dithiothreitol) were added, followed by 5 μL at of human recombinant ASK1 enzyme (22.5 ng/mL) diluted in ASK1 buffer in order to start the reaction. The reaction ran for 180 minutes at 30° C. before the addition of 5 μL of stop solution (Cambrex, #LT23-231). 10 μL of Pklight ATP detection reagent (Cambrex #LT23-233) were added. After 120 min of incubation, luminescence was measured on a Perkin-Elmer Victor 2 spectrofluorimeter. The percentage of inhibition relative to the fluorescence observed in the presence of solvent (1% DMSO) alone was determined. The IC50 values for inhibition were determined in triplicates on at least 2 separate occasions.

LPS-induced TNFα release = test: Lipopolysaccharide (LPS)-induced TNFα release assay in mice; assay type: in vivo; conditions: 30 mg/kg po, female C3H mice, given 15 min prior to LPS 0.3 mg/kg ip, blood sampled 90 min later
Procedure: The administration of LPS induces the release of TNFα from white blood cells (monocytes, macrophages, Kupffer cells, etc) and endothelial cells into the blood. This is a model for cytokine release that occurs during inflammation. […] ASK1 mediates free radical pathways. Based on this mechanism, the blockade of ASK1 by specific inhibitors should reduce LPS-induced TNFα release in mice.
Female C3H mice (Elevage Janvier) (8 week old), received E. Coli's LPS (O111:B4, Sigma, 0.3 mg/kg, ip) after the administration of the test articles. Ninety min later, the animals were sacrificed and the blood was sampled. Plasma levels of TNFα were determined in serum using an ELISA kit (R&D). LPS was solubilized in sterile saline.
The test articles were suspended in 0.5% CMC/0.25% Tween 20 and administered 15 min prior the challenge of LPS by oral route at the doses of 3 to 30 mg/kg. Control animals received the vehicle. In time course experiments, the test articles were administered 15 min to 4 hrs prior the challenge of LPS. Dexamethasone (0.1 mg/kg, po) was used as reference.
The animals were divided into 5 groups (6 mice each group):
Inhibition of TNFα release was calculated as follows: % inhibition=100*([…])) Where TNFα 1=TNFα concentration in group 1 (pg/ml), TNFα X=TNFα concentration in group X (pg/ml).

IC50 (human recombinant ASK1) [nM]	Structure (SMILES)	% inhibition of LPS-induced TNFα release in mice (LPS-induced TNFα release) [%]
700 ± 200	O=C(Nc1nc2cccc(-c3ccoc3)n2n1)c1cccnc1 [Example 2, N-[5-(3-furyl)[1,2,4]triazolo[1,5-a]pyridin-2-yl]nicotinamide]	49 ± 8
1100 ± 500	O=C(Nc1nc2cccc(NC3CC3)n2n1)c1cccnc1 [Example 30, N-[5-(cyclopropylamino)[1,2,4]triazolo[1,5-a]pyridin-2-yl]nicotinamide]	43 ± 3
531 ± 18	COCCN(C)Cc1ccc(C(=O)Nc2nc3cccc(NC4CCCCC4)n3n2)cc1 [Example 130, N-[5-(cyclohexylamino)[1,2,4]triazolo[1,5-a]pyridin-2-yl]-4-{[(2-methoxyethyl)(methyl)amino]methyl}benzamide]	
91 ± 26	O=C(Nc1nc2cccc(NC3CCCCC3)n2n1)c1ccc(NCCCO)nc1 [Example 132, N-[5-(cyclohexylamino)[1,2,4]triazolo[1,5-a]pyridin-2-yl]-6-[(3-hydroxypropyl)amino]nicotinamide]	
1140	CN(C)Cc1ccc(C(=O)Nc2nc3cc(C(F)(F)F)cc(NC4CC4)n3n2)cc1 [Example 140, N-[5-(cyclopropylamino)-7-(trifluoromethyl)[1,2,4]triazolo[1,5-a]pyridin-2-yl]-4-[(dimethylamino)methyl]benzamide]	
2000	COc1cc(-c2ccc3nc(NC(=O)c4ccc(CN5CCCCC5)cc4)nn3c2)ccc1O [Example 144, N-[6-(4-hydroxy-3-methoxyphenyl)[1,2,4]triazolo[1,5-a]pyridin-2-yl]-4-(piperidin-1-ylmethyl)benzamide]	
138 ± 30	COc1cc(-c2ccc3nc(NC(=O)c4ccc(CN5CCCC5=O)cc4)nn3c2)ccc1O [Example 146, N-[6-(4-hydroxy-3-methoxyphenyl)[1,2,4]triazolo[1,5-a]pyridin-2-yl]-4-[(2-oxopyrrolidin-1-yl)methyl]benzamide]	
5500	COc1cc(-c2ccc3nc(NC(=O)c4ccc(CN(C)C)cc4)nn3c2)ccc1O [Example 147, 4-[(dimethylamino)methyl]-N-[6-(4-hydroxy-3-methoxyphenyl)[1,2,4]triazolo[1,5-a]pyridin-2-yl]benzamide]	
119 ± 29	CCC(C)Nc1cc(Cl)cc2nc(NC(=O)c3ccc(NCCCO)nc3)nn12 (centres unmarked) [Example 169, N-[5-(sec-butylamino)-7-chloro[1,2,4]triazolo[1,5-a]pyridin-2-yl]-6-[(3-hydroxypropyl)amino]nicotinamide]	
